# Data from ChEMBL document CHEMBL1121462, “Effect of changing the COOH-terminal amide group present in the hydrophilic cluster of oxytocin to dimethylamide” (1980).
# Columns and labels:
# Rattus norvegicus [1] = species on record: Rattus norvegicus; assay: Potency by rat antidiuretic assay; type: functional, Urine
# Rattus norvegicus [2] = species on record: Rattus norvegicus; assay: Potency by rat pressor assay; type: functional
# Gallus gallus = species on record: Gallus gallus; assay: Potency by avian vasodepressor assay
smiles,measurement,setting,value
CC[C@H](C)[C@@H]1NC(=O)[C@H](Cc2ccc(O)cc2)NC(=O)[C@@H](N)CSSC[C@@H](C(=O)N2CCC[C@H]2C(=O)N[C@@H](CC(C)C)C(=O)NCC(=O)N(C)C)NC(=O)[C@H](CC(N)=O)NC(=O)[C@H](CCC(N)=O)NC1=O,Potency,Rattus norvegicus [1],0.096 mg
same,Potency,Rattus norvegicus [2],<0.01 mg
same,Potency,Gallus gallus,<0.07 mg
